Data on 22 compounds can be found in PubChem BioAssay AID330 (DTP/NCI, 2004).

The experiment concerns P388 leukemia ip, CD2F1 mice, survival T/C. As to the kind of experiment: NCI In Vivo Anticancer Drug Screen. Data for tumor model P388 Leukemia (intraperitoneal) in CD2F1 (CDF1) mice. The settings on record: endpoint: median survival time, higher = longer survival. In a few lines: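 Mice carrying the transplanted tumor received test compound or vehicle. Survival was recorded in each group, and the value is the treated-group measurement divided by that of the vehicle-treated control group.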

[1] abbreviates: dose: 50.0 mg/kg/injection, schedule: Q01DX005 (ip), vehicle: saline with Tween-80.
The mark [2] stands for this setting: dose: 100.0 mg/kg/injection, schedule: Q01DX005 (ip), vehicle: saline with Tween-80.
[3] abbreviates: dose: 200.0 mg/kg/injection, schedule: Q01DX005 (ip), vehicle: saline with Tween-80.
The mark [4] stands for this setting: dose: 60.0 mg/kg/injection, schedule: Q01DX005 (ip), vehicle: Klucel (hydroxypropylcellulose) (HPC).
The mark [5] stands for this setting: dose: 100.0 mg/kg/injection, schedule: Q01DX001 (ip), vehicle: saline with Tween-80.
The mark [6] stands for this setting: dose: 120.0 mg/kg/injection, schedule: Q01DX005 (ip), vehicle: Klucel (hydroxypropylcellulose) (HPC).
Where [7] appears, read: dose: 200.0 mg/kg/injection, schedule: Q01DX001 (ip), vehicle: saline with Tween-80.
The mark [8] stands for this setting: dose: 400.0 mg/kg/injection, schedule: Q01DX001 (ip), vehicle: saline with Tween-80.
The mark [9] stands for this setting: dose: 50.0 mg/kg/injection, schedule: Q01DX009 (ip), vehicle: saline with Tween-80.
The mark [10] stands for this setting: dose: 100.0 mg/kg/injection, schedule: Q01DX009 (ip), vehicle: saline with Tween-80.
Setting [11] is: dose: 60.0 mg/kg/injection, schedule: Q01DX005 (ip), vehicle: saline with Tween-80.
Where [12] appears, read: dose: 120.0 mg/kg/injection, schedule: Q01DX005 (ip), vehicle: saline with Tween-80.
[13] abbreviates: dose: 240.0 mg/kg/injection, schedule: Q01DX005 (ip), vehicle: saline with Tween-80.
The mark [14] stands for this setting: dose: 25.0 mg/kg/injection, schedule: Q01DX009 (ip), vehicle: saline with Tween-80.
The mark [15] stands for this setting: dose: 12.5 mg/kg/injection, schedule: Q01DX009 (ip), vehicle: saline with Tween-80.

Molecules are shown by their SMILES. “And” between values parts separate entries of the source, which are not always exact repeats. Equal entries are not always repeated. Inconclusive results and toxic doses are left out.

For `C=CCN(CC=C)c1cc(Cl)nnc1Cl`, the T/C was 104 % of control (dose: 25.0 mg/kg/injection, schedule: Q01DX009 (ip), vehicle: other); 102 % of control (dose: 50.0 mg/kg/injection, schedule: Q01DX009 (ip), vehicle: other); 103 % of control (dose: 100.0 mg/kg/injection, schedule: Q01DX009 (ip), vehicle: other); 109 % of control (dose: 200.0 mg/kg/injection, schedule: Q01DX009 (ip), vehicle: other).

For the compound `CN(Cc1cnc2nc(N)nc(N)c2n1)c1ccc(C(=O)NC(CCC(=O)OCc2cc3c(cc2Cl)OCO3)C(=O)OCc2cc3c(cc2Cl)OCO3)cc1` (centres undefined), the T/C reads like this: (dose: 0.94 mg/kg/injection, schedule: Q01DX005 (ip), vehicle: saline with Tween-80) 166 % of control; (dose: 1.87 mg/kg/injection, schedule: Q01DX005 (ip), vehicle: saline with Tween-80) 184 % of control and 186 % of control; (dose: 7.5 mg/kg/injection, schedule: Q01DX005 (ip), vehicle: saline with Tween-80) 99 % of control and 118 % of control.

For `CN(C)c1ccc2c(c1)C(=O)N(OS(C)(=O)=O)C2=O`, the T/C by setting is: (dose: 25.0 mg/kg/injection, schedule: Q01DX005 (ip), vehicle: saline with Tween-80) 111 % of control; under setting [1], 108 % of control and 117 % of control; under setting [2], 106 % of control.

For `O=C(Nc1ccc(Sc2ccc(N=Nc3c(O)c(S(=O)(=O)O)cc4cc(S(=O)(=O)O)ccc34)cc2)cc1)c1ccc(N=Nc2c(O)c(S(=O)(=O)O)cc3cc(S(=O)(=O)O)ccc23)cc1`, the T/C under setting [1] was 98 % of control, the T/C under setting [2] is 104 % of control and the T/C under setting [3] is 104 % of control.

As to `CCOC(=O)C1C[S][Sn]2([NH]1)[NH]C(C(=O)OCC)C[S]2` (centres undefined), the T/C is 99 % of control (dose: 50.0 mg/kg/injection, schedule: Q01DX005 (ip), vehicle: Klucel (hydroxypropylcellulose) (HPC)); 106 % of control (dose: 100.0 mg/kg/injection, schedule: Q01DX005 (ip), vehicle: Klucel (hydroxypropylcellulose) (HPC)); 101 % of control (dose: 200.0 mg/kg/injection, schedule: Q01DX005 (ip), vehicle: Klucel (hydroxypropylcellulose) (HPC)).

Take `Cc1nc2sccn2c1C(N)=O`: the T/C runs as follows: under setting [4], 94 % of control; under setting [5], 103 % of control; under setting [6], 97 % of control; under setting [7], 114 % of control; under setting [8], 103 % of control.

For the compound `C/C(N)=C/C(=O)c1ccccc1`, the T/C was 102 % of control (dose: 100.0 mg/kg/injection, schedule: Q04DX003 (ip), vehicle: saline); 100 % of control (dose: 200.0 mg/kg/injection, schedule: Q04DX003 (ip), vehicle: saline); 105 % of control (dose: 400.0 mg/kg/injection, schedule: Q04DX003 (ip), vehicle: saline).

`Cc1cccc(-[n+]2noc(N)n2)c1`: the T/C is, setting by setting: (dose: 3.13 mg/kg/injection, schedule: Q01DX009 (ip), vehicle: water) 100 % of control; (dose: 6.25 mg/kg/injection, schedule: Q01DX009 (ip), vehicle: water) 100 % of control; (dose: 12.5 mg/kg/injection, schedule: Q01DX009 (ip), vehicle: water) 114 % of control; (dose: 25.0 mg/kg/injection, schedule: Q01DX009 (ip), vehicle: water) 152 % of control; (dose: 50.0 mg/kg/injection, schedule: Q01DX009 (ip), vehicle: water) 167 % of control.

For the compound `COC(=O)/C=C\SC(=S)C1CCCC1=N` (centres undefined), the T/C by setting is: under setting [9], 98 % of control; under setting [10], 94 % of control; (dose: 200.0 mg/kg/injection, schedule: Q01DX009 (ip), vehicle: saline with Tween-80) 91 % of control.

On to `N#Cc1nnc2cc(-c3ccccc3)nn2c1-c1cccs1`, for which the T/C under setting [4] was 86 % of control; the T/C under setting [6] is 90 % of control; the T/C (dose: 240.0 mg/kg/injection, schedule: Q01DX005 (ip), vehicle: Klucel (hydroxypropylcellulose) (HPC)) is 87 % of control.

For the compound `CNS(=O)(=O)O`, the T/C (dose: 12.5 mg/kg/injection, schedule: Q01DX009 (ip), vehicle: saline) was 86 % of control; the T/C (dose: 25.0 mg/kg/injection, schedule: Q01DX009 (ip), vehicle: saline) is 104 % of control; the T/C (dose: 50.0 mg/kg/injection, schedule: Q01DX009 (ip), vehicle: saline) is 105 % of control; the T/C (dose: 100.0 mg/kg/injection, schedule: Q01DX009 (ip), vehicle: saline) is 100 % of control.

For `CCOC(=O)N(CCN(C(=O)OCC)C1CCCCC1)C1CCCCC1`, the T/C under setting [11] is 99 % of control; the T/C (dose: 100.0 mg/kg/injection, schedule: Q04DX002 (ip), vehicle: saline with Tween-80) is 100 % of control; the T/C under setting [12] was 99 % of control; the T/C (dose: 200.0 mg/kg/injection, schedule: Q04DX002 (ip), vehicle: saline with Tween-80) was 90 % of control; the T/C under setting [13] was 89 % of control; the T/C (dose: 400.0 mg/kg/injection, schedule: Q04DX002 (ip), vehicle: saline with Tween-80) is 89 % of control.

With `CCCN(CCC)CCCC#N`, the T/C under setting [14] was 90 % of control, the T/C under setting [9] was 90 % of control and the T/C under setting [10] is 100 % of control.

Consider `CN1C(=O)C2CCCN2C(=O)C1(C)NC(=O)OCc1ccccc1` (centres undefined), for which the T/C was 107 % of control and 98 % of control (dose: 3.12 mg/kg/injection, schedule: Q04DX003 (ip), vehicle: saline); 105 % of control and 98 % of control (dose: 6.25 mg/kg/injection, schedule: Q04DX003 (ip), vehicle: saline); 102 % of control and 105 % of control (dose: 12.5 mg/kg/injection, schedule: Q04DX003 (ip), vehicle: saline); 99 % of control and 107 % of control (dose: 25.0 mg/kg/injection, schedule: Q04DX003 (ip), vehicle: saline); 100 % of control (dose: 25.0 mg/kg/injection, schedule: Q04DX003 (ip), vehicle: suspension in saline).

On to `NNC(=O)Cc1cc(=O)[nH][nH]1`, for which the T/C was 101 % of control (dose: 100.0 mg/kg/injection, schedule: Q01DX009 (ip), vehicle: Klucel (hydroxypropylcellulose) (HPC)); 100 % of control (dose: 200.0 mg/kg/injection, schedule: Q01DX009 (ip), vehicle: Klucel (hydroxypropylcellulose) (HPC)); 108 % of control (dose: 400.0 mg/kg/injection, schedule: Q01DX009 (ip), vehicle: Klucel (hydroxypropylcellulose) (HPC)).

Turning to `CCCCCCCCCCCCCCCC(=O)NCCN(CC)CC`, the T/C under setting [15] is 105 % of control and the T/C under setting [14] was 100 % of control.

As for `CC1=C(C)CN(CCC(=O)O)C(C(N)=O)C1` (centres undefined), the T/C runs as follows: (dose: 50.0 mg/kg/injection, schedule: Q01DX005 (ip), vehicle: saline) 100 % of control; (dose: 100.0 mg/kg/injection, schedule: Q01DX005 (ip), vehicle: saline) 107 % of control; (dose: 200.0 mg/kg/injection, schedule: Q01DX005 (ip), vehicle: saline) 100 % of control.

On to `CC1=CCCC2C1(C)CCC(C)C2(C)Cc1cc(O)ccc1O` (centres undefined), for which the T/C was 100 % of control under setting [15]; 103 % of control under setting [14]; 107 % of control under setting [9]; 97 % of control under setting [5]; 94 % of control under setting [10]; 99 % of control under setting [7]. Moreover, the T/C under setting [8] is 88 % of control.

Turning to `COc1ccc(OC)c(N(CCN2C(=O)c3ccccc3C2=O)C(=O)C2CCC(=O)C2C)c1` (centres undefined), the T/C was 99 % of control under setting [11] and 87 % of control under setting [12].

With `CC1(C)c2ccccc2-c2nc3ccccc3cc2C1(Br)Br`, the T/C runs as follows: under setting [1], 105 % of control; under setting [2], 110 % of control; under setting [3], 120 % of control.

On to `CCN(Cc1c(C)nc2ccc(N(C)C)cc2c1Cl)CN(CC)Cc1c(C)nc2ccc(N(C)C)cc2c1Cl`, for which the T/C was 100 % of control (dose: 100.0 mg/kg/injection, schedule: Q01DX002 (ip), vehicle: saline with Tween-80); 94 % of control (dose: 200.0 mg/kg/injection, schedule: Q01DX002 (ip), vehicle: saline with Tween-80); 98 % of control (dose: 400.0 mg/kg/injection, schedule: Q01DX002 (ip), vehicle: saline with Tween-80).

On to `NC(CCCCC(N)C(=O)c1ccccc1)C(=O)c1ccccc1` (centres undefined), for which the T/C under setting [11] was 98 % of control, the T/C under setting [12] is 93 % of control and the T/C under setting [13] was 94 % of control.
